Reference: US20090062253A1, “HETEROCYCLODIAZEPINE CANNABINOID RECEPTOR MODULATORS FOR TREATMENT OF DISEASE” (KALYPSYS, INC., priority 2007, published 2009)

Key:
[1] = target: T1, Human CB2 (Homo sapiens, UniProt P34972); experiment: Human CB2 Radioligand Binding Assay; details: membranes from stably transfected CHO CB2 cells; competition with [3H] CP-55,940; read-out: CB2 Ligand Binding Asssay
T1 construct: expressed in transfected cells; membrane preparation
Procedure, shortened: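 Filtration competition against [3H]CP-55,940 at its Kd on membranes from CHO cells stably expressing human CB2; compounds at 10 uM single point or dose-response, 1% DMSO. Buffer 50 mM Tris-HCl pH 7.4, EGTA, MgCl2, 5.0 mg/ml BSA; 90 min at 30° C, scintillation read; 100 nM CP-55,940 = 100%.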

[2] = target: T2, human cannabinoid receptor type 1 (Homo sapiens, UniProt P21554); experiment: Human CB1 Radioligand Binding Assay (basis of selectivity CB2 vs. CB1)
T2 construct: purchased Perkin Elmer RBHCB1M; host or cells: HEK 293 EBNA cells
T2 sequence (P21554 whole entry): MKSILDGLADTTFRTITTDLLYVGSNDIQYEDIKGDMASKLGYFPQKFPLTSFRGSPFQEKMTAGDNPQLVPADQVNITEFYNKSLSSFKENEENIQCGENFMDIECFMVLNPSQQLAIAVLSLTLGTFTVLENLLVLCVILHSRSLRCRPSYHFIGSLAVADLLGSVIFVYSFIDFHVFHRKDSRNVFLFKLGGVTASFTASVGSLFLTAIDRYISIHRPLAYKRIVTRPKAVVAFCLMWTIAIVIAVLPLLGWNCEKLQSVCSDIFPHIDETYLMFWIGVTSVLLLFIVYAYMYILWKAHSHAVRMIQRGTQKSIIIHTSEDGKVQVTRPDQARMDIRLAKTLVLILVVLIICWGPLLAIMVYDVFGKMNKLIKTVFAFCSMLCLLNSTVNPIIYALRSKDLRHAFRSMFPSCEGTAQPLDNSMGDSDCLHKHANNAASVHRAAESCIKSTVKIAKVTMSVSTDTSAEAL
Procedure, shortened: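 Filtration competition binding against [3H] CP-55,940 at its Kd, using membranes from HEK 293 EBNA cells expressing human CB1; 90 minutes at 30° C in 50 mM Tris-HCl pH 7.4, 2.5 mM EDTA, 5 mM MgCl2, 5.0 mg/ml BSA, 1% DMSO. Single point 10 uM or dose-response; 100 nM CP-55,940 defined 100% efficacy.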

T1 sequence (P34972 whole entry): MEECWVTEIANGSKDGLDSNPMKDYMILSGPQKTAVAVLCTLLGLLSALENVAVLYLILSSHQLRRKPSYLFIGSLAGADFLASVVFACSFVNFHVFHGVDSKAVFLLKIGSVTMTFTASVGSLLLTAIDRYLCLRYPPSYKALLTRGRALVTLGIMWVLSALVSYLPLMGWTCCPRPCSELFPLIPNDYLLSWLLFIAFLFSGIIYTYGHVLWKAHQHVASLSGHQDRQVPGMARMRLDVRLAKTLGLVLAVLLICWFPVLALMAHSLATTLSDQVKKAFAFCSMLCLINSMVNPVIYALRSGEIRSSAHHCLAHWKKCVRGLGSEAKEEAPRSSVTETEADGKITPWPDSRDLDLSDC

| IC50 (radioligand displacement) [1] [nM] | Selectivity, CB2 vs. CB1 [2] | SMILES |
| --- | --- | --- |
| > 1000 | − (− indicates < 10-fold) | CC(C)(C)c1ccc(C2c3cccnc3OCCN2C(=O)Nc2ccc(F)cc2F)cc1 (stereo not drawn) [Example 138, 5-(4-tert-Butylphenyl)-N-(2,4-difluorophenyl)-2,3-dihydropyrido[3,2-f][1,4]oxazepine-4(5H)-carboxamide] |
| < 1000 | + (+ indicates > 10-fold) | CC(C)(C)c1ccc(C2c3cccn3CCCC2C(=O)Nc2ccc(F)c(F)c2)cc1 (stereo not drawn) [Example 91, 9-(4-tert-Butylphenyl)-N-(3,4-difluorophenyl)-6,7,8,9-tetrahydro-5H-pyrrolo[1,2-a]azepine-8-carboxamide] |
| > 1000 | − (− indicates < 10-fold) | CC(C)(C)c1ccc(C2NCCn3cccc32)cc1 (stereo not drawn) [Example 1, 1-(4-tert-Butylphenyl)-1,2,3,4-tetrahydropyrrolo[1,2-a]pyrazine] |

Further lines, the compound ahead of its results:

| SMILES | IC50 (radioligand displacement) [1] [nM] | Selectivity, CB2 vs. CB1 [2] |
| --- | --- | --- |
| Cc1cccc(C2c3cccn3CCCN2C(=O)Nc2ccc(Cl)cc2Cl)c1 (stereo not drawn) [Example 11, N-(2,4-Dichlorophenyl)-1-m-tolyl-4,5-dihydro-1H-pyrrolo[1,2-a][1,4]diazepine-2(3H)-carboxamide] | > 1000 | − (− indicates < 10-fold) |
| O=C(Nc1ccc(Cl)cc1Cl)N1CCCn2cccc2C1Cc1ccccc1 (stereo not drawn) [Example 21, 1-Benzyl-N-(2,4-dichlorophenyl)-4,5-dihydro-1H-pyrrolo[1,2-a][1,4]diazepine-2(3H)-carboxamide] | > 1000 | − (− indicates < 10-fold) |
| O=C(Nc1ccc(C(F)(F)F)cc1)C1=C(c2ccccc2)c2cccn2CCC1 [Example 74, (E)-9-Phenyl-N-(4-(trifluoromethyl)phenyl)-6,7-dihydro-5H-pyrrolo[1,2-a]azepine-8-carboxamide] | > 1000 | − (− indicates < 10-fold) |
